The target of experiment [1] is GDP-bound KRAS protein (aa 1-169), containing both G12C and C118A amino acid substitutions (Homo sapiens, UniProt P01116, C118A/G12C). Description: Coupled nucleotide exchange assay (SOS-mediated, AlphaScreen). It is filed as biochemical. As to conditions: 5 min compound pre-incubation. A general note: Bead proximity is the source of the signal in Alpha formats.
The test system of experiment [2] is Phosphorylation of ERK1/2 in MIA PaCa-2 cells. Description: Phospho-ERK1/2 MSD assay in MIA PaCa-2 cells. It is filed as cell-based. The note with it: Homo sapiens, MIA PaCa-2, 2 h, read-out: p-ERK IC50 (2 h; MIA PaCa-2), 2 h compound treatment. The gist of the method: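 MIA PaCa-2 or A549 cells were treated with a compound dose-response titration for 2 or 4 h at 37 °C, then stimulated with 10 ng/mL EGF for 10 min. Phospho-ERK1/2 in RIPA lysates was measured by MSD whole-cell lysate immunoassay, and IC50 came from a 4-parameter logistic fit.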

Chain of GDP-bound KRAS protein (aa 1-169), containing both G12C and C118A amino acid substitutions (P01116 1-169 isoform P01116-2 G12C/C118A): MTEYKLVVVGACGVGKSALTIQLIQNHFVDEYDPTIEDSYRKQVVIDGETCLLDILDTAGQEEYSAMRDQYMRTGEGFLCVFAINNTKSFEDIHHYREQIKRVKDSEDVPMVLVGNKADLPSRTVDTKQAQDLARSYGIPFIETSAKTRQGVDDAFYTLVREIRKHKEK

As to `C=CC(=O)N1CCN(c2nc(=O)n(-c3c(C(C)C)n[nH]c3C(C)C)c3nc(-c4ccccc4F)c(Cl)cc23)[C@@H](C)C1` [Example 54-72, 6-chloro-1-(3,5-di(2-propanyl)-1H-pyrazol-4-yl)-7-(2-fluorophenyl)-4-((2S)-2-methyl-4-(2-propenoyl)-1-piperazinyl) pyrido[2,3-d]pyrimidin-2(1H)-one], the “Coupled exchange IC50 (5 min)” value in experiment [1] was 0.108 | nda μM. For the same molecule, in experiment [2], the IC50 came out at 183 nM.

For the molecule `C=CC(=O)N1CCN(c2nc(=O)n(-c3c(OC)cccc3C(C)C)c3nc(-c4c(O)cccc4F)c(Cl)cc23)[C@@H](C)C1` [Example 54-73, 6-chloro-7-(2-fluoro-6-hydroxy-phenyl)-1-(2-methoxy-6-(2-propanyl)phenyl)-4-((2S)-2-methyl-4-(2-propenoyl)-1-piperazinyl) pyrido[2,3-d]pyrimidin-2(1H)-one], the “Coupled exchange IC50 (5 min)” value in experiment [1] is listed as 0.062 | nda μM. Moreover, the IC50 in experiment [2] was 64 nM.

On to `C=CC(=O)N1CCN(c2nc(=O)n(-c3ccccc3-c3ccccc3)c3nc(-c4c(O)cccc4F)c(Cl)cc23)[C@@H](C)C1` [Example 54-74, 1-([biphenyl]-2-yl)-6-chloro-7-(2-fluoro-6-hydroxyphenyl)-4-((2S)-2-methyl-4-(2-propenoyl)-1-piperazinyl) pyrido[2,3-d]pyrimidin-2(1H)-one], for which, in experiment [1], the “Coupled exchange IC50 (5 min)” value is on record as 0.582 | nda μM. Further, the IC50 in experiment [2] stood at 926 nM.

`C=CC(=O)N1CCN(c2nc(=O)n(-c3ccccc3C(C)C)c3nc(-c4ccc(F)cc4O)c(Cl)cc23)[C@@H](C)C1` [Example 54-77, 6-chloro-7-(4-fluoro-2-hydroxy-phenyl)-4-((2S)-2-methyl-4-(2-propenoyl)-1-piperazinyl)-1-(2-(2-propanyl)phenyl)pyrido [2,3-d]pyrimidin-2(1H)-one]: in experiment [1], the “Coupled exchange IC50 (5 min)” value was 0.218 | nda μM. Besides, the IC50 in experiment [2] amounted to 158 nM.

For the molecule `C=CC(=O)N1CCN(c2nc(=O)n(-c3ccccc3C(C)C)c3nc(-c4cc(F)ccc4O)c(Cl)cc23)[C@@H](C)C1` [Example 54-78, 6-chloro-7-(5-fluoro-2-hydroxyphenyl)-4-((2S)-2-methyl-4-(2-propenoyl)-1-piperazinyl)-1-(2-(2-propanyl)phenyl)pyrido [2,3-d]pyrimidin-2(1H)-one], the “Coupled exchange IC50 (5 min)” value in experiment [1] was 0.326 | nda μM. Moreover, the half-inhibitory concentration (IC50) in experiment [2] came to 171 nM.

For the molecule `C=CC(=O)N1CCN(c2nc(=O)n(-c3ccccc3C(C)C)c3nc(-c4c(O)cccc4Cl)c(Cl)cc23)[C@@H](C)C1` [Example 54-79, 6-chloro-7-(2-chloro-6-hydroxy-phenyl)-4-((2S)-2-methyl-4-(2-propenoyl)-1-piperazinyl)-1-(2-(2-propanyl)phenyl)pyrido [2,3-d]pyrimidin-2(1H)-one], the “Coupled exchange IC50 (5 min)” value in experiment [1] was 0.072 | nda μM. Also, in experiment [2], the IC50 was 98 nM.

As for `C=CC(=O)N1CCN(c2nc(=O)n(-c3ccccc3C(C)C)c3nc(-c4cc(OC)ccc4Cl)c(Cl)cc23)[C@@H](C)C1` [Example 54-89, 6-chloro-7-(2-chloro-5-methoxy-phenyl)-4-((2S)-2-methyl-4-(2-propenoyl)-1-piperazinyl)-1-(2-(2-propanyl)phenyl)pyrido [2,3-d]pyrimidin-2(1H)-one], the “Coupled exchange IC50 (5 min)” value in experiment [1] is recorded as 0.271 | nda μM. The IC50 in experiment [2] turned out to be 212 nM.

As for `C=CC(=O)N1CCN(c2nc(=O)n(-c3ccccc3C(C)C)c3nc(-c4cc(O)ccc4Cl)c(Cl)cc23)[C@@H](C)C1` [Example 54-90, 6-chloro-7-(2-chloro-5-hydroxy-phenyl)-4-((2S)-2-methyl-4-(2-propenoyl)-1-piperazinyl)-1-(2-(2-propanyl)phenyl)pyrido [2,3-d]pyrimidin-2(1H)-one], the “Coupled exchange IC50 (5 min)” value in experiment [1] is listed as 0.105 | nda μM. The IC50 in experiment [2] is 121 nM.

As to `C=CC(=O)N1CCN(c2nc(=O)n(-c3ccccc3C(C)C)c3nc(-c4cc(O)cc(Cl)c4Cl)c(Cl)cc23)[C@@H](C)C1` [Example 54-91, 6-chloro-7-(2,3-dichloro-5-hydroxy-phenyl)-4-((2S)-2-methyl-4-(2-propenoyl)-1-piperazinyl)-1-(2-(2-propanyl)phenyl)pyrido [2,3-d]pyrimidin-2(1H)-one], the “Coupled exchange IC50 (5 min)” value in experiment [1] is given as 0.033 | nda μM. Besides, in experiment [2], the IC50 was 39 nM.

For the molecule `C=CC(=O)N1CCN(c2nc(=O)n(-c3ccccc3C(C)C)c3nc(-c4cc(N)ncc4Cl)c(Cl)cc23)[C@@H](C)C1` [Example 54-95, 7-(2-amino-5-chloro-4-pyridinyl)-6-chloro-4-((2S)-2-methyl-4-(2-propenoyl)-1-piperazinyl)-1-(2-(2-propanyl)phenyl)pyrido [2,3-d]pyrimidin-2(1H)-one], the “Coupled exchange IC50 (5 min)” value in experiment [1] was 0.756 | nda μM. Besides, in experiment [2], the IC50 worked out at 821 nM.

For the molecule `C=CC(=O)N1CCN(c2nc(=O)n(-c3ccccc3C(C)C)c3nc(-c4cccnc4N)c(Cl)cc23)[C@@H](C)C1` [Example 54-96, 7-(2-amino-3-pyridinyl)-6-chloro-4-((2S)-2-methyl-4-(2-propenoyl)-1-piperazinyl)-1-(2-(2-propanyl)phenyl)pyrido [2,3-d]pyrimidin-2(1H)-one], the “Coupled exchange IC50 (5 min)” value in experiment [1] is 0.676 | nda μM. Moreover, in experiment [2], the IC50 was 363 nM.

Regarding `C=CC(=O)N1CCN(c2nc(=O)n(-c3ccccc3C3(C)CC3)c3nc(-c4c(O)cccc4F)c(Cl)cc23)[C@@H](C)C1` [Example 54-97, 6-chloro-7-(2-fluoro-6-hydroxyphenyl)-1-(2-(1-methylcyclopropyl)phenyl)-4-((2S)-2-methyl-4-(2-propenoyl)-1-piperazinyl) pyrido[2,3-d]pyrimidin-2(1H)-one], the “Coupled exchange IC50 (5 min)” value in experiment [1] was 0.128 | nda μM. The IC50 in experiment [2] was 256 nM.

Turning to `C=CC(=O)N1CCN(c2nc(=O)n(-c3ccccc3C3(C)CC3)c3nc(-c4ccccc4F)c(Cl)cc23)[C@@H](C)C1` [Example 54-99, 6-chloro-7-(2-fluorophenyl)-1-(2-(1-methylcyclopropyl)phenyl)-4-((2S)-2-methyl-4-(2-propenoyl)-1-piperazinyl) pyrido[2,3-d]pyrimidin-2(1H)-one], the “Coupled exchange IC50 (5 min)” value in experiment [1] was 0.153 | nda μM. Moreover, in experiment [2], the IC50 was determined as 294 nM.

On to `C=CC(=O)N1CCN(c2nc(=O)n(-c3ncccc3CC(C)C)c3nc(-c4c(O)cccc4F)c(Cl)cc23)[C@@H](C)C1` [Example 54-101, 6-chloro-7-(2-fluoro-6-hydroxyphenyl)-4-((2S)-2-methyl-4-(2-propenoyl)-1-piperazinyl)-1-(3-(2-methylpropyl)-2-pyridinyl) pyrido[2,3-d]pyrimidin-2(1H)-one], for which the “Coupled exchange IC50 (5 min)” value in experiment [1] was 0.162 | nda μM. Further, in experiment [2], the IC50 came to 157 nM.

Regarding `C=CC(=O)N1CCN(c2nc(=O)n(-c3ncccc3CC(C)C)c3nc(-c4ccccc4F)c(Cl)cc23)[C@@H](C)C1` [Example 54-102, 6-chloro-7-(2-fluorophenyl)-4-((2S)-2-methyl-4-(2-propenoyl)-1-piperazinyl)-1-(3-(2-methylpropyl)-2-pyridinyl) pyrido[2,3-d]pyrimidin-2(1H)-one], the “Coupled exchange IC50 (5 min)” value in experiment [1] was 0.161 | nda μM. Also, the IC50 in experiment [2] came to 176 nM.

For the molecule `C=CC(=O)N1CCN(c2nc(=O)n(-c3c(C(C)C)cccc3N(C)C)c3nc(-c4ccccc4F)c(Cl)cc23)[C@@H](C)C1` [Example 54-104, 6-chloro-1-(2-(dimethyl-amino)-6-(2-propanyl)phenyl)-7-(2-fluorophenyl)-4-((2S)-2-methyl-4-(2-propenoyl)-1-piperazinyl) pyrido[2,3-d]pyrimidin-2(1H)-one], in experiment [1], the “Coupled exchange IC50 (5 min)” value is reported as 0.09 | nda μM. Moreover, the IC50 in experiment [2] worked out at 70 nM.

As for `C=CC(=O)N1CCN(c2nc(=O)n(-c3c(C)cc(OC)nc3C(C)C)c3nc(-c4ccccc4F)c(Cl)cc23)[C@@H](C)C1` [Example 54-105, 6-chloro-7-(2-fluorophenyl)-1-(6-methoxy-4-methyl-2-(2-propanyl)-3-pyridinyl)-4-((2S)-2-methyl-4-(2-propenoyl)-1-piperazinyl) pyrido[2,3-d]pyrimidin-2(1H)-one], the “Coupled exchange IC50 (5 min)” value in experiment [1] is recorded as 0.07 | nda μM. Further, the IC50 in experiment [2] stood at 89 nM.

For `C=CC(=O)N1CCN(c2nc(=O)n(-c3c(OC)ncnc3C(C)C)c3nc(-c4ccccc4F)c(Cl)cc23)[C@@H](C)C1` [Example 54-107, 6-chloro-7-(2-fluorophenyl)-1-(4-methoxy-6-(2-propanyl)-5-pyrimidinyl)-4-((2S)-2-methyl-4-(2-propenoyl)-1-piperazinyl) pyrido[2,3-d]pyrimidin-2(1H)-one], the “Coupled exchange IC50 (5 min)” value in experiment [1] is given as 0.159 | nda μM. Further, the IC50 in experiment [2] stood at 99 nM.

Take `C=CC(=O)N1CCN(c2nc(=O)n(-c3c(C(C)C)nc[nH]c3=O)c3nc(-c4ccccc4F)c(Cl)cc23)[C@@H](C)C1` [Example 54-108, 6-chloro-7-(2-fluorophenyl)-4-((2S)-2-methyl-4-(2-propenoyl)-1-piperazinyl)-1-(6-oxo-4-(2-propanyl)-1,6-dihydro-5-pyrimidinyl) pyrido[2,3-d]pyrimidin-2(1H)-one]: the “Coupled exchange IC50 (5 min)” value in experiment [1] is recorded as 0.434 | nda μM. For the same molecule, the IC50 in experiment [2] stood at 3770 nM.

With `C=CC(=O)N1CCN(c2nc(=O)n(-c3cncnc3C(C)(C)C)c3nc(-c4ccccc4F)c(Cl)cc23)[C@@H](C)C1` [Example 54-110, 6-chloro-7-(2-fluorophenyl)-1-(4-(2-methyl-2-propanyl)-5-pyrimidinyl)-4-((2S)-2-methyl-4-(2-propenoyl)-1-piperazinyl) pyrido[2,3-d]pyrimidin-2(1H)-one], the “Coupled exchange IC50 (5 min)” value in experiment [1] is on record as 0.404 | nda μM. The half-inhibitory concentration (IC50) in experiment [2] came to 408 nM.

By IC50 is commonly meant the concentration that gives 50% inhibition.

Values taken from patent US11090304B2 (Amgen Inc., priority 2018, dated 2021).
